# Laboratory results as given in patent US8785630B2, “Insecticidal triazines and pyrimidines” (Vestaron Corporation, priority 2011, dated 2014).
# System: beet armyworm (Spodoptera exigua)
# Experiment: Insecticidal test for beet armyworm, treated diet surface
# Assay type: in vivo
# Conditions: 100 μg/cm^2 on diet surface, first instar larvae, 32 insects per treatment, observations 24, 48 and 96 hours
# Description: The compounds identified in Table 8 were prepared according to the previous methods and were tested against beet armyworm and corn earworm as follows:
# Insecticidal Test for Beet Armyworm (Spodoptera exigua).
# To prepare the test solution, the test compound was Formulated at 3499 ppm in solution as 5 mg compound/1.429 mL of 9 parts acetone: 1 part deionized H2O and vortexed to homogenize. 50 μL of the 3499 ppm (equivalent to 100 μg/cm^2 dose on diet surface area) test solution was pipetted upon the surface of 1 mL of solidified cool Southland Products Incorporated Beet Armyworm Diet (201 Stuart Island Road Lake Village, Ark. 71653) using an Eppendorf Repeater Plus with a 1 mL pipette tip. All pipetting of treatments was done in a Labconco Hood. Thirty minutes were allowed for the acetone to evaporate leaving a dose of 100 μg/cm^2 on the surface of the artificial diet. Two 24 hour old first instar Beet Armyworm (Spodoptera Exigua) larvae were placed in each well of the 128 well Bio-BA 128 Bioassay trays (CD International, Pitman, N.J., 08071, USA) using a #0 fine camel hair paint brush. Bioassay trays were sectioned into treatment groups of 8 with 16 replicates per treatment group (32 insects per treatment). Trays containing the treated diet and larvae were covered with a Bio-CV-16 cover (CD International, Pitman, N.J., 08071, USA) and then placed on a rack under florescent lights at 27° C., 20% relative humidity (RH) in the room, and 16 hr light: 8 hr dark for 96 hours. Observations were made 24, 48 and 96 hours after treatment and infestation. The number of insects dead were counted out of the 32 insects total per treatment and the results are given in a table as a percent mortality at a dose of 100 μg/cm^2. When finished, the tray was moved to the −5° C. freezer and left for 24 hr to insure mortality of the remaining S. exigua. After 24 hours, dispose of entire tray into waste bin.
# Keys to the table: Mortality refers to activity against beet army worm (Spodoptera exigua) as defined above at the concentration of 100 μg/cm^2 (A=76-100% mortality, B=51-75% mortality, C=26-50% mortality and D=0-25% mortality).
row,SMILES,mortality at 100 µg/cm2 [%]
1,"COc1cccc(-c2nc(NN=Cc3ccc(OC(F)(F)F)cc3)nc(Nc3ccc(Cl)cc3)n2)c1 [Example 29, N-(4-chlorophenyl)-4-(3-methoxyphenyl)-6-(2-(4-(trifluoromethoxy)benzylidene)hydrazinyl)-1,3,5-triazin-2-amine]",0 to 25
2,"COc1ccc(-c2nc(NN=Cc3ccc(OC(F)(F)F)cc3)nc(Nc3ccc(Cl)cc3)n2)cc1 [Example 30, N-(4-chlorophenyl)-4-(4-methoxyphenyl)-6-(2-(4-(trifluoromethoxy)benzylidene)hydrazinyl)-1,3,5-triazin-2-amine]",0 to 25
3,"Fc1cccc(-c2nc(NN=Cc3ccc(OC(F)(F)F)cc3)nc(Nc3ccc(Cl)cc3)n2)c1 [Example 31, N-(4-chlorophenyl)-4-(3-fluorophenyl)-6-(2-(4-(trifluoromethoxy)benzylidene)hydrazinyl)-1,3,5-triazin-2-amine]",51 to 75
4,"FC(F)(F)Oc1ccc(C=NNc2nc(Nc3ccc(Cl)cc3)nc(-c3ccc(Cl)c(Cl)c3)n2)cc1 [Example 32, N-(4-chlorophenyl)-4-(3,4-dichlorophenyl)-6-(2-(4-(trifluoromethoxy)benzylidene)hydrazinyl)-1,3,5-triazin-2-amine]",0 to 25
5,"Cc1ccc(-c2nc(NN=Cc3ccc(OC(F)(F)F)cc3)nc(Nc3ccc(Cl)cc3)n2)cc1 [Example 33, N-(4-chlorophenyl)-4-(p-tolyl)-6-(2-(4-(trifluoromethoxy)benzylidene)hydrazinyl)-1,3,5-triazin-2-amine]",0 to 25
6,"Fc1ccc(Nc2nc(NN=Cc3ccc(OC(F)(F)F)cc3)nc(-c3c(F)cccc3Cl)n2)cc1Cl [Example 34, N-(3-chloro-4-fluorophenyl)-4-(2-chloro-6-fluorophenyl)-6-(2-(4-(trifluoromethoxy)benzylidene)hydrazinyl)-1,3,5-triazin-2-amine]",76 to 100
7,"Fc1ccc(Nc2nc(NN=Cc3ccc(OC(F)(F)F)cc3)nc(-c3c(F)cccc3Cl)n2)cc1C(F)(F)F [Example 35, 4-(2-chloro-6-fluorophenyl)-N-(4-fluoro-3-(trifluoromethyl)phenyl)-6-(2-(4-(trifluoromethoxy)benzylidene)hydrazinyl)-1,3,5-triazin-2-amine]",76 to 100
8,"Fc1cccc(Cl)c1-c1nc(NN=Cc2ccc(OC(F)(F)C(F)Cl)cc2)nc(Nc2ccc(Cl)nc2)n1 (centres unmarked) [Example 36, 4-(2-(4-(2-chloro-1,1,2-trifluoroethoxy)benzylidene)hydrazinyl)-6-(2-chloro-6-fluorophenyl)-N-(6-chloropyridin-3-yl)-1,3,5-triazin-2-amine]",76 to 100
9,"Fc1cccc(Cl)c1-c1nc(NN=Cc2ccc(OC(F)(F)C(F)Cl)cc2)nc(Nc2ccc(Cl)cc2)n1 (centres unmarked) [Example 37, 4-(2-(4-(2-chloro-1,1,2-trifluoroethoxy)benzylidene)hydrazinyl)-6-(2-chloro-6-fluorophenyl)-N-(4-chlorophenyl)-1,3,5-triazin-2-amine]",76 to 100
10,"Fc1cccc(Cl)c1-c1nc(NN=Cc2ccc(OC(F)(F)F)cc2)nc(Nc2ccc(Cl)c(Cl)c2)n1 [Example 38, 4-(2-chloro-6-fluorophenyl)-N-(3,4-dichlorophenyl)-6-(2-(4-(trifluoromethoxy)benzylidene)hydrazinyl)-1,3,5-triazin-2-amine]",76 to 100
11,"Fc1cccc(Cl)c1-c1nc(NN=Cc2ccc(OC(F)(F)F)cc2)nc(Nc2cc(Cl)cc(Cl)c2)n1 [Example 39, 4-(2-chloro-6-fluorophenyl)-N-(3,5-dichlorophenyl)-6-(2-(4-(trifluoromethoxy)benzylidene)hydrazinyl)-1,3,5-triazin-2-amine]",76 to 100
12,"Fc1cccc(Cl)c1-c1nc(NN=Cc2ccc(OC(F)(F)F)cc2)nc(Nc2ccnc(Cl)c2)n1 [Example 40, 4-(2-chloro-6-fluorophenyl)-N-(2-chloropyridin-4-yl)-6-(2-(4-(trifluoromethoxy)benzylidene)hydrazinyl)-1,3,5-triazin-2-amine]",26 to 50
13,"Fc1cccc(Cl)c1-c1nc(NN=Cc2ccc(OC(F)(F)F)cc2)nc(Nc2ccccc2Cl)n1 [Example 41, 4-(2-chloro-6-fluorophenyl)-N-(2-chlorophenyl)-6-(2-(4-(trifluoromethoxy)benzylidene)hydrazinyl)-1,3,5-triazin-2-amine]",76 to 100
14,"Fc1ccccc1-c1nc(NN=Cc2ccc(OC(F)(F)F)cc2)nc(Nc2ccc(Cl)nc2)n1 [Example 42, N-(6-chloropyridin-3-yl)-4-(2-fluorophenyl)-6-(2-(4-(trifluoromethoxy)benzylidene)hydrazinyl)-1,3,5-triazin-2-amine]",76 to 100
15,"CNc1nc(NN=Cc2ccc(OC(F)(F)F)cc2)nc(-c2c(F)cccc2Cl)n1 [Example 43, 4-(2-chloro-6-fluorophenyl)-N-methyl-6-(2-(4-(trifluoromethoxy)benzylidene)hydrazinyl)-1,3,5-triazin-2-amine]",76 to 100
16,"Fc1ccccc1-c1nc(NN=Cc2ccc(OC(F)(F)F)cc2)nc(Nc2ccc(Cl)cc2)n1 [Example 44, N-(4-chlorophenyl)-4-(2-fluorophenyl)-6-(2-(4-(trifluoromethoxy)benzylidene)hydrazinyl)-1,3,5-triazin-2-amine]",76 to 100
17,"Fc1cccc(Cl)c1-c1nc(NN=Cc2ccc(OC(F)(F)F)cc2)nc(Nc2ccc(Cl)cn2)n1 [Example 45, 4-(2-chloro-6-fluorophenyl)-N-(5-chloropyridin-2-yl)-6-(2-(4-(trifluoromethoxy)benzylidene)hydrazinyl)-1,3,5-triazin-2-amine]",26 to 50
18,"FC(F)(F)Oc1ccc(C=NNc2cc(Nc3ccc(Cl)cc3)nc(-c3ccccc3)n2)cc1 [Example 46, N-(4-chlorophenyl)-2-phenyl-6-(2-(4-(trifluoromethoxy)benzylidene)hydrazinyl)pyrimidin-4-amine]",76 to 100
19,"FC(F)(F)Oc1ccc(C=NNc2nc(Nc3ccc(Cl)nc3)cc(-c3ccccc3)n2)cc1 [Example 47, N-(6-chloropyridin-3-yl)-6-phenyl-2-(2-(4-(trifluoromethoxy)benzylidene)hydrazinyl)pyrimidin-4-amine]",0 to 25
20,"Fc1cccc(Cl)c1C=NNc1nc(Nc2ccc(Cl)cc2)nc(-c2ccc(OC(F)(F)F)cc2)n1 [Example 48, 4-(2-(2-chloro-6-fluorobenzylidene)hydrazinyl)-N-(4-chlorophenyl)-6-(4-(trifluoromethoxy)phenyl)-1,3,5-triazin-2-amine]",76 to 100
21,"FC(F)(F)Oc1ccc(C=NNc2nc(Nc3ccc(Cl)cn3)cc(-c3ccccc3)n2)cc1 [Example 49, N-(5-chloropyridin-2-yl)-6-phenyl-2-(2-(4-(trifluoromethoxy)benzylidene)hydrazinyl)pyrimidin-4-amine]",0 to 25
22,Oc1ccc(C=NNc2nc(Nc3ccc(Cl)nc3)nc(-c3c(F)cccc3Cl)n2)cc1 [Example 50],0 to 25
23,"Fc1cccc(Cl)c1-c1nc(NN=Cc2ccc(C(F)(F)F)cc2)nc(Nc2ccc(Cl)nc2)n1 [Example 51, 4-(2-chloro-6-fluorophenyl)-N-(6-chloropyridin-3-yl)-6-(2-(4-(trifluoromethyl)benzylidene)hydrazinyl)-1,3,5-triazin-2-amine]",76 to 100
